From ChEMBL document CHEMBL4052716, “Discovery and development of a novel class of phenoxyacetyl amides as highly potent TRPM8 agonists for use as cooling agents” (Bioorg Med Chem Lett, 2017) come the findings set out here.

Series [1] is filed under the species Homo sapiens. Nature of the series: Induction of off-taste response in rained human subjects assessed as induction of bitterness during cooling sensation study.
Series [2] deals with T1, Transient receptor potential cation channel subfamily M member 8 (Homo sapiens, UniProt Q7Z2W7). Nature of the series: Potency index, ratio of WS-3 EC50 to compound EC50 for human TRPM8 receptor.
Target sequence in this assay (Q7Z2W7 whole entry, looked up): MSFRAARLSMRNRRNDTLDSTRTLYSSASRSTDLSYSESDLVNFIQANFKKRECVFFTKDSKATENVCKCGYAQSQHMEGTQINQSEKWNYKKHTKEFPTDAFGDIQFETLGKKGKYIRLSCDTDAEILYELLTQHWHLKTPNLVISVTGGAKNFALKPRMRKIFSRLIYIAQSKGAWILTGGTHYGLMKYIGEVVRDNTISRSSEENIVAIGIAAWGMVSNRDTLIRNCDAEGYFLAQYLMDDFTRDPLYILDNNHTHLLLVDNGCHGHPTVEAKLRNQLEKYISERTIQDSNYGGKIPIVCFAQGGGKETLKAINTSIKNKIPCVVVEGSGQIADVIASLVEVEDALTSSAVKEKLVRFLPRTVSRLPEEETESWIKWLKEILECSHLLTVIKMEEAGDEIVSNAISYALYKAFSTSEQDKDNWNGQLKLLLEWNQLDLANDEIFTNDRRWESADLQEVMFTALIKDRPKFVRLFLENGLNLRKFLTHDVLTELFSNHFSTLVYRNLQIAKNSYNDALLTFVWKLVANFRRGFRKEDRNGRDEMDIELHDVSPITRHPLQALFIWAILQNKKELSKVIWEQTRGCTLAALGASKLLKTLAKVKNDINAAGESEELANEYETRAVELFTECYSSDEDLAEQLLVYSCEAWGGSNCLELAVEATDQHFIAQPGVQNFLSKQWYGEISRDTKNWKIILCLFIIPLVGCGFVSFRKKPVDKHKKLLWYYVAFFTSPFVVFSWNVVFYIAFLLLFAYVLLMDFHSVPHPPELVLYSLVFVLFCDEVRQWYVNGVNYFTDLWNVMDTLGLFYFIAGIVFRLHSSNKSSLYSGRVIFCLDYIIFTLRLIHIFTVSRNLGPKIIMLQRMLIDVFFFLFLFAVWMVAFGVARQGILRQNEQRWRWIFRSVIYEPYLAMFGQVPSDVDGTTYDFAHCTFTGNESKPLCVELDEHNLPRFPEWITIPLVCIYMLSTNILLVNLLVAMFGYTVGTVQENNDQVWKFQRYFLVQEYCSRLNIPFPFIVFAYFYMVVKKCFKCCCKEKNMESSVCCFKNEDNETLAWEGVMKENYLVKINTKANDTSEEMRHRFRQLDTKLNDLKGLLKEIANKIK
Series [3] has as its system Homo sapiens. Nature of the series: In vivo agonist activity at human TRPM8 in trained human subjects assessed as concentration required to deliver cooling sensation equivalent to 45 uM WS-3 by measuring cooling intensity. Format: functional.
For series [4], the target named is T1, Transient receptor potential cation channel subfamily M member 8. The experiment in a line: Agonist activity at human TRPM8 expressed in HEK293 cells assessed as increase in intracellular calcium level after 15 mins by Fluo-3-AM dye-based fluorescence assay. The series is classed as cell-based. The settings on record: read-out: EC50. For orientation: A change in cytosolic calcium serves as a functional read-out for many receptors and channels.
Target sequence in this assay (Q7Z2W7 whole entry): as the sequence (Q7Z2W7 whole entry, looked up) above

Series [5] concerns Homo sapiens. The experiment in a line: In vivo agonist activity at human TRPM8 in trained human subjects assessed as time duration of perceived cooling effect at 45 uM dosed as aqueous solution. The series is classed as functional.
The nature of series [6]: Thermodynamic solubility of the compound in pH 7.1 phosphoric buffer. Format: physicochemical. The settings on record: read-out: Therm_solubility.
Series [7] in a line: Permeability of the compound assessed as drug transport by PAMPA. The series is classed as physicochemical. Background: In PAMPA a lipid-coated filter parts donor from acceptor wells.
Series [8] in a line: Stability of the compound in pH 7.1 phosphoric acid assessed as compound remaining after heating at 100 degC for 24 hrs. Conditions: read-out: Stability. Format: physicochemical.
The nature of series [9]: Stability of the compound in pH 2.8 citric acid assessed as compound remaining after heating at 100 degC for 24 hrs. The series is classed as physicochemical. Conditions: read-out: Stability.
The nature of series [10]: Stability of the compound in pH 4.0 citric acid assessed as compound remaining after heating at 100 degC for 24 hrs. Conditions: read-out: Stability. The series is classed as physicochemical.
Series [11] is filed under the species Homo sapiens. The experiment in a line: Induction of off-taste response in rained human subjects during cooling sensation study.
Series [12] has as its system Homo sapiens. The experiment in a line: In vivo agonist activity at human TRPM8 in trained human subjects assessed as time duration of perceived cooling effect at 3 uM dosed as aqueous solution. Format: functional.

In brackets after ≈: the same amount, converted by molar mass. Activity calls are given as the source filed them. The calls are words filed in the database; no cut-off is given here.

One may read the EC50 as the concentration giving half of the maximal effect. Take `Cc1ccc(OCC(=O)N(Cc2cccs2)c2ccnn2C)cc1`: the Activity entry in series [1] was “Toxic”. Also, the Ratio EC50 in [2] worked out at 14. In series [3], the outcome was inactive. Besides, the concentration giving a half-maximal response (EC50) in [4] turned out to be 422 nM.
`CCNC(=O)[C@@H]1C[C@H](C)CC[C@H]1C(C)C`: the Time in series [5] was 25 min.
Regarding `CCN(Cc1cccs1)C(=O)c1cc2cc(C)ccc2o1`, the solubility thermodynamic in [6] turned out to be 27 µM (≈ 8.08 µg/mL). Besides, the Ratio EC50 in series [2] is 42. Besides, in series [3], the Activity worked out at 10 µM. Moreover, in [7], the Drug transport is 2%. The half-maximal effective concentration (EC50) in series [4] is 120 nM.
For `CCN(Cc1cccs1)C(=O)COc1ccc2c(c1)COC2`, the solubility thermodynamic in series [6] was 571 µM (≈ 181 µg/mL). In addition, the Ratio EC50 in [2] was 58. The Activity in series [3] amounted to 5 µM. In [7], the Drug transport is recorded as 33%. Also, in series [4], the 50% effective concentration (EC50) turned out to be 61 nM.
The corresponding values for `O=C(COc1ccc2c(c1)CCC2)N(Cc1cccs1)c1ccn[nH]1` are 26 µM (≈ 9.19 µg/mL), over 1e+06, 3 µM, 5% and 0.001 nM.
`CCN(Cc1cccs1)C(=O)COc1ccc(C)cc1`: the solubility thermodynamic in [6] was determined as 545 µM (≈ 158 µg/mL). The Ratio EC50 in [2] is 620. For the same compound, in series [3], the Activity turned out to be 5 µM. The Drug transport in series [7] stood at 12%. For the same compound, the concentration giving a half-maximal response (EC50) in series [4] amounted to 8 nM.
For the compound `Cc1ccc(OCC(=O)N(Cc2cccs2)c2ccon2)cc1`, the remaining at 24 h in [8] was 0.5%; in series [9], 90.8%; in [10], 78.1%. Further, the Ratio EC50 in [2] is 3440. Further, in series [4], the concentration giving a half-maximal response (EC50) is 2 nM.
Regarding `CCN(Cc1cccs1)C(=O)c1cc2cc(OC)ccc2o1`, the solubility thermodynamic in [6] came to 49 µM (≈ 15.5 µg/mL). The Ratio EC50 in [2] stood at 164. Moreover, the Activity in series [3] was 5 µM. The Drug transport in series [7] turned out to be 1%. In addition, the EC50 in series [4] was determined as 80 nM.
Regarding `Cc1ccc(OCC(=O)N(Cc2cccs2)c2ccn[nH]2)cc1`, the solubility thermodynamic in series [6] is 189 µM (≈ 61.9 µg/mL). For the same compound, in series [2], the Ratio EC50 is 35800. Further, the Activity result was “Non-Toxic” in series [11] and 3 µM in series [3]. Also, in [7], the Drug transport is listed as 10%. For the same compound, the EC50 in series [4] was 0.2 nM. Moreover, the Time in series [12] came to 60 min.
For `CCN(Cc1cccs1)C(=O)COc1ccc2c(c1)CCC2`, the solubility thermodynamic in [6] came to 85 µM (≈ 26.8 µg/mL). Moreover, the Ratio EC50 in [2] was 7680. Moreover, in series [3], the Activity is 3 µM. In addition, the Drug transport in series [7] is given as 3%. In addition, in series [4], the concentration giving a half-maximal response (EC50) was 0.8 nM.
In the case of `Cc1ccc(OCC(=O)N(Cc2cccs2)c2ncco2)cc1`, the remaining at 24 h came to 0.1% in [8], 14.9% in series [9] and 73.7% in series [10]. Also, the Ratio EC50 in [2] stood at 120000. Moreover, in series [4], the half-maximal effective concentration (EC50) was found to be 0.3 nM.
